Reference: ChEMBL document CHEMBL1201862, “PubChem BioAssay data set” (2004)
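Interpolation was linear, between the two tested concentrations surrounding the appropriate level; five concentrations were tested over 48 hours in 96-well plates. The concentration for 50% growth inhibition is given as GI50.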 The source made the active and inactive calls. No stated cut-off is given here; in the data, active = GI50 up to about 1.1 µM and inactive = higher.

Tests used:
Assay in all cases: inhibition of tumour cell growth, NCI panel, 48 h
Hs-578T = test system: Hs-578T
RPMI-8226 = test system: RPMI-8226
Malme-3M = test system: Malme-3M
DU-145 = test system: DU-145
LOX IMVI = test system: LOX IMVI
HOP-92 = test system: HOP-92
UACC-257 = test system: UACC-257
KM12 = test system: KM12
SN12C = test system: SN12C
NCI/ADR-RES = test system: NCI/ADR-RES
UO-31 = test system: UO-31
OVCAR-4 = test system: OVCAR-4
NCI-H460 = test system: NCI-H460
OVCAR-8 = test system: OVCAR-8
SK-OV-3 = test system: SK-OV-3
SNB-75 = test system: SNB-75
786-0 = test system: 786-0
IGROV-1 = test system: IGROV-1
SF-268 = test system: SF-268
COLO 205 = test system: COLO 205
K562 = test system: K562
HCC 2998 = test system: HCC 2998
MDA-MB-435 = test system: MDA-MB-435
HT-29 = test system: HT-29
UACC-62 = test system: UACC-62
MOLT-4 = test system: MOLT-4
ACHN = test system: ACHN
MDA-MB-231 = test system: MDA-MB-231
T47D = test system: T47D
HCT-15 = test system: HCT-15
EKVX = test system: EKVX
SR = test system: SR
NCI-H522 = test system: NCI-H522
A498 = test system: A498
HL-60 = test system: HL-60
OVCAR-5 = test system: OVCAR-5
PC-3 = test system: PC-3
SNB-19 = test system: SNB-19
U-251 = test system: U-251
SK-MEL-5 = test system: SK-MEL-5
SK-MEL-28 = test system: SK-MEL-28
CCRF-CEM = test system: CCRF-CEM
MDA-N = test system: MDA-N
SK-MEL-2 = test system: SK-MEL-2
NCI-H226 = test system: NCI-H226
MCF7 = test system: MCF7
RXF 393 = test system: RXF 393
TK-10 = test system: TK-10
SF-295 = test system: SF-295
CAKI-1 = test system: CAKI-1
A549 = test system: A549
NCI-H23 = test system: NCI-H23
HCT-116 = test system: HCT-116
HOP-62 = test system: HOP-62
M14 = test system: M14
BT-549 = test system: BT-549
SF-539 = test system: SF-539
OVCAR-3 = test system: OVCAR-3
SW-620 = test system: SW-620

In the case of `COC(=O)[C@H]1[C@H](OC(=O)[C@@H](OC)c2ccccc2)ON2CC[C@@H](OC(=O)c3ccccc3)[C@H]12`, the GI50 (Hs-578T) is reported as 57.9 µM (inactive), the GI50 (RPMI-8226) is reported as > 100 µM (inactive) and the GI50 (Malme-3M) is reported as > 100 µM (inactive). For the same compound, the GI50 (DU-145) was > 100 µM (inactive), the GI50 (LOX IMVI) was > 100 µM (inactive) and the GI50 (HOP-92) was 30.3 µM (inactive). The GI50 (UACC-257) was > 100 µM (inactive), the GI50 (KM12) was > 100 µM (inactive) and the GI50 (SN12C) was 78 µM (inactive). The GI50 (NCI/ADR-RES) was > 100 µM (inactive), the GI50 (UO-31) was > 100 µM (inactive) and the GI50 (OVCAR-4) was > 100 µM (inactive). For the same compound, the GI50 (NCI-H460) was > 100 µM (inactive), the GI50 (OVCAR-8) was 61.4 µM (inactive) and the GI50 (SK-OV-3) was > 100 µM (inactive). For the same compound, the GI50 (SNB-75) was 29 µM (inactive), the GI50 (786-0) was 43 µM (inactive) and the GI50 (IGROV-1) was 49.9 µM (inactive). The GI50 (SF-268) was 54.3 µM (inactive), the GI50 (COLO 205) was > 100 µM (inactive) and the GI50 (K562) was > 100 µM (inactive). For the same compound, the GI50 (HCC 2998) was > 100 µM (inactive), the GI50 (MDA-MB-435) was > 100 µM (inactive) and the GI50 (HT-29) was 51.3 µM (inactive). For the same compound, the GI50 (UACC-62) was 10.7 µM (inactive), the GI50 (MOLT-4) was > 100 µM (inactive) and the GI50 (ACHN) was 10.3 µM (inactive). The GI50 (MDA-MB-231) was 74.3 µM (inactive), the GI50 (T47D) was 91.2 µM (inactive) and the GI50 (HCT-15) was over 100 µM. The GI50 (EKVX) was > 100 µM (inactive), the GI50 (SR) was > 100 µM (inactive) and the GI50 (NCI-H522) was 2.65 µM (inactive). For the same compound, the GI50 (A498) was 9.38 µM (inactive), the GI50 (HL-60) was > 100 µM (inactive) and the GI50 (OVCAR-5) was > 100 µM (inactive). The GI50 (PC-3) was > 100 µM (inactive), the GI50 (SNB-19) was > 100 µM (inactive) and the GI50 (U-251) was 70.1 µM (inactive). The GI50 (SK-MEL-5) was > 100 µM (inactive), the GI50 (SK-MEL-28) was > 100 µM (inactive) and the GI50 (CCRF-CEM) was > 100 µM (inactive). For the same compound, the GI50 (MDA-N) was > 100 µM (inactive), the GI50 (SK-MEL-2) was 48.1 µM (inactive) and the GI50 (NCI-H226) was > 100 µM (inactive). The GI50 (MCF7) was 3.83 µM (inactive), the GI50 (RXF 393) was 64.4 µM (inactive) and the GI50 (TK-10) was > 100 µM (inactive). For the same compound, the GI50 (SF-295) was 39.4 µM (inactive), the GI50 (CAKI-1) was 45.2 µM (inactive) and the GI50 (A549) was > 100 µM (inactive). The GI50 (NCI-H23) was > 100 µM (inactive), the GI50 (HCT-116) was > 100 µM (inactive) and the GI50 (HOP-62) was 35.1 µM (inactive). For the same compound, the GI50 (M14) was > 100 µM (inactive).
With `c1ccc(-c2nnc(CCCCCCCCc3nnc(-c4ccccc4)o3)o2)cc1` the GI50 (Malme-3M) was > 100 µM (inactive), the GI50 (DU-145) was > 100 µM (inactive) and the GI50 (LOX IMVI) was 48.9 µM (inactive). The GI50 (HOP-92) was 50.9 µM (inactive), the GI50 (UACC-257) was 42.2 µM (inactive) and the GI50 (KM12) was 63.8 µM (inactive). For the same compound, the GI50 (SN12C) was > 100 µM (inactive), the GI50 (NCI/ADR-RES) was > 100 µM (inactive) and the GI50 (UO-31) was > 100 µM (inactive). For the same compound, the GI50 (OVCAR-4) was > 100 µM (inactive), the GI50 (NCI-H460) was 50.5 µM (inactive) and the GI50 (OVCAR-8) was > 100 µM (inactive). The GI50 (SK-OV-3) was > 100 µM (inactive), the GI50 (SNB-75) was > 100 µM (inactive) and the GI50 (786-0) was 74 µM (inactive). For the same compound, the GI50 (IGROV-1) was 66.5 µM (inactive), the GI50 (SF-268) was > 100 µM (inactive) and the GI50 (COLO 205) was > 100 µM (inactive). For the same compound, the GI50 (K562) was 34.7 µM (inactive), the GI50 (HCC 2998) was < 0.01 µM (active) and the GI50 (MDA-MB-435) was > 100 µM (inactive). The GI50 (HT-29) was 45.1 µM (inactive), the GI50 (BT-549) was > 100 µM (inactive) and the GI50 (SF-539) was > 100 µM (inactive). For the same compound, the GI50 (MOLT-4) was 51.4 µM (inactive), the GI50 (ACHN) was > 100 µM (inactive) and the GI50 (MDA-MB-231) was 12.2 µM (inactive). For the same compound, the GI50 (HCT-15) was over 100 µM, the GI50 (EKVX) was > 100 µM (inactive) and the GI50 (NCI-H522) was 25.9 µM (inactive). For the same compound, the GI50 (A498) was 16.1 µM (inactive), the GI50 (HL-60) was 30.6 µM (inactive) and the GI50 (OVCAR-5) was > 100 µM (inactive). The GI50 (PC-3) was > 100 µM (inactive), the GI50 (SNB-19) was > 100 µM (inactive) and the GI50 (U-251) was 53 µM (inactive). For the same compound, the GI50 (SK-MEL-5) was > 100 µM (inactive), the GI50 (SK-MEL-28) was > 100 µM (inactive) and the GI50 (CCRF-CEM) was 52.5 µM (inactive). The GI50 (SK-MEL-2) was > 100 µM (inactive), the GI50 (OVCAR-3) was 65 µM (inactive) and the GI50 (NCI-H226) was > 100 µM (inactive). For the same compound, the GI50 (MCF7) was 38.2 µM (inactive), the GI50 (TK-10) was > 100 µM (inactive) and the GI50 (SF-295) was > 100 µM (inactive). For the same compound, the GI50 (CAKI-1) was 46 µM (inactive), the GI50 (A549) was 32 µM (inactive) and the GI50 (NCI-H23) was > 100 µM (inactive). For the same compound, the GI50 (SW-620) was > 100 µM (inactive), the GI50 (HCT-116) was 55.6 µM (inactive) and the GI50 (HOP-62) was 97.3 µM (inactive). The GI50 (M14) was > 100 µM (inactive).
`CCCCNC(=S)Nc1nc(C(=O)NNC(=S)Nc2ccccc2)cs1` was tested, and the GI50 (RPMI-8226) was > 100 µM (inactive), the GI50 (DU-145) was > 100 µM (inactive) and the GI50 (HOP-92) was 21.4 µM (inactive). For the same compound, the GI50 (UACC-257) was > 100 µM (inactive), the GI50 (KM12) was > 100 µM (inactive) and the GI50 (SN12C) was > 100 µM (inactive). The GI50 (NCI/ADR-RES) was > 100 µM (inactive), the GI50 (UO-31) was > 100 µM (inactive) and the GI50 (OVCAR-4) was > 100 µM (inactive). For the same compound, the GI50 (NCI-H460) was > 100 µM (inactive), the GI50 (OVCAR-8) was > 100 µM (inactive) and the GI50 (SK-OV-3) was > 100 µM (inactive). The GI50 (SNB-75) was 38.3 µM (inactive), the GI50 (786-0) was 40.1 µM (inactive) and the GI50 (SF-268) was > 100 µM (inactive). The GI50 (COLO 205) was 32.7 µM (inactive), the GI50 (HCC 2998) was > 100 µM (inactive) and the GI50 (MDA-MB-435) was 61 µM (inactive). For the same compound, the GI50 (HT-29) was > 100 µM (inactive), the GI50 (UACC-62) was > 100 µM (inactive) and the GI50 (BT-549) was > 100 µM (inactive). For the same compound, the GI50 (SF-539) was > 100 µM (inactive), the GI50 (MOLT-4) was > 100 µM (inactive) and the GI50 (ACHN) was > 100 µM (inactive). The GI50 (MDA-MB-231) was 30.3 µM (inactive), the GI50 (T47D) was > 100 µM (inactive) and the GI50 (HCT-15) was over 100 µM. The GI50 (EKVX) was > 100 µM (inactive), the GI50 (A498) was 33.1 µM (inactive) and the GI50 (OVCAR-5) was > 100 µM (inactive). For the same compound, the GI50 (PC-3) was > 100 µM (inactive), the GI50 (SNB-19) was > 100 µM (inactive) and the GI50 (U-251) was 21.1 µM (inactive). For the same compound, the GI50 (SK-MEL-5) was 40.4 µM (inactive), the GI50 (CCRF-CEM) was > 100 µM (inactive) and the GI50 (MDA-N) was > 100 µM (inactive). For the same compound, the GI50 (SK-MEL-2) was 44.9 µM (inactive), the GI50 (OVCAR-3) was > 100 µM (inactive) and the GI50 (NCI-H226) was > 100 µM (inactive). For the same compound, the GI50 (MCF7) was > 100 µM (inactive), the GI50 (TK-10) was > 100 µM (inactive) and the GI50 (SF-295) was > 100 µM (inactive). The GI50 (CAKI-1) was > 100 µM (inactive), the GI50 (A549) was > 100 µM (inactive) and the GI50 (NCI-H23) was > 100 µM (inactive). For the same compound, the GI50 (SW-620) was > 100 µM (inactive), the GI50 (HCT-116) was > 100 µM (inactive) and the GI50 (HOP-62) was > 100 µM (inactive). The GI50 (M14) was 82.8 µM (inactive).
